Results from ChEMBL document CHEMBL4419173, “Small-molecule inhibitors targeting g-protein-coupled rho guanine nucleotide exchange factors” (2014).
Active and inactive are the calls of the source. The rule behind the calls is not given here.

Tests used:
Mus musculus [1] = organism: Mus musculus; test: Inhibition of RhoGEF in mouse NIH/3T3 cells assessed as inhibition of 10% calf serum-induced Rac1-GTP formation by measuring Rac1-GTP level at 30 uM incubated for 24 hrs by densitometry relative to control (reference value: 2.86); format: cell-based
[2] = target: T1, RhoGEF 1/Transforming protein RhoA (Homo sapiens) (UniProt P61586+Q92888); test: (§1) Binding affinity to human LARG (765 to 1138 residues) DH-PH module expressed in mouse NIH/3T3 cells assessed as reduction in LARG binding to human full length RhoA (1 to 193 residues) by measuring relative LARG binding level at 30 uM pull-down assay (reference value: 1 No unit); format: cell-based
MCF7 [3] = test: Inhibition of RhoGEF in human MCF7 cells derived mammospheres assessed as inhibition of RhoA-mediated phospho-MLC formation at 10 uM incubated for 24 hrs by densitometry; format: cell-based
MCF7 [4] = test: Inhibition of cell migration of human MCF7 cells at 10 to 50 uM; format: functional, cell-based
[5] = tested on: Transforming protein RhoA (Homo sapiens), P61586 [Q63L]; test: Inhibition of constitutively active RhoA Q63L mutant (unknown origin) expressed in mouse NIH/3T3 cells assessed as reduction in 10% calf serum-induced phospho-MLC formation at 50 uM incubated for 24 hrs by densitometry; format: cell-based
Sequence of Transforming protein RhoA (Homo sapiens), P61586 [Q63L] (P61586 whole entry Q63L): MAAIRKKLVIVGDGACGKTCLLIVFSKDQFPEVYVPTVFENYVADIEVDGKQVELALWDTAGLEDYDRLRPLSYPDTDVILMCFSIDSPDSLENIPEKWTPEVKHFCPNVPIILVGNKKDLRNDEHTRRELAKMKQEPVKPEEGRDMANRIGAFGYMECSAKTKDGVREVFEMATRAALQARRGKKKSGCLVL

Mus musculus [6] = organism: Mus musculus; test: Inhibition of RhoGEF-mediated RhoA signaling in mouse NIH/3T3 cells assessed as inhibition of SDF1a-induced phospho-FAK formation at 10 to 30 uM incubated for 24 hrs by densitometry; format: cell-based
[7] = target: T1, RhoGEF 1/Transforming protein RhoA (Homo sapiens); test: Binding affinity to human LARG (765 to 1138 residues) DH-PH module expressed in mouse NIH/3T3 cells assessed as reduction in LARG binding to human full length RhoA (1 to 193 residues) by measuring relative LARG binding level at 50 uM pull-down assay (reference value: 1 No unit); format: cell-based
Mus musculus [8] = organism: Mus musculus; test: Inhibition of RhoGEF in mouse NIH/3T3 cells assessed as inhibition of 10% calf serum-induced RhoA-GTP formation by measuring reduction in RhoA-GTP level at 2.5 uM in presence of 2.5 uM Rhosin/G04 incubated for 24 hrs by densitometry relative to control; format: cell-based
Mus musculus [9] = organism: Mus musculus; test: Inhibition of RhoGEF-mediated Rac1 signaling in mouse NIH/3T3 cells assessed as reduction in PDGF-stimulated Rac1-mediated lamellipodia formation at 10 to 30 uM; format: cell-based
[10] = target: Intersectin-1 (Homo sapiens) (UniProt Q15811); test: Inhibition of GST-tagged human intersectin-1 (1227 to 1571 residues) RhoGEF-catalyzed guanine nucleotide-exchange reaction of human full length Cdc42 (1 to 191 residues) by measuring inhibition of the GDP dissociation from Cdc42 at 0.76 to 250000 nM by Alexa 647 fluorescence dye based GDP/GTP exchange assay
Sequence of Intersectin-1 (Homo sapiens) (Q15811 whole entry, the tested form may be a part): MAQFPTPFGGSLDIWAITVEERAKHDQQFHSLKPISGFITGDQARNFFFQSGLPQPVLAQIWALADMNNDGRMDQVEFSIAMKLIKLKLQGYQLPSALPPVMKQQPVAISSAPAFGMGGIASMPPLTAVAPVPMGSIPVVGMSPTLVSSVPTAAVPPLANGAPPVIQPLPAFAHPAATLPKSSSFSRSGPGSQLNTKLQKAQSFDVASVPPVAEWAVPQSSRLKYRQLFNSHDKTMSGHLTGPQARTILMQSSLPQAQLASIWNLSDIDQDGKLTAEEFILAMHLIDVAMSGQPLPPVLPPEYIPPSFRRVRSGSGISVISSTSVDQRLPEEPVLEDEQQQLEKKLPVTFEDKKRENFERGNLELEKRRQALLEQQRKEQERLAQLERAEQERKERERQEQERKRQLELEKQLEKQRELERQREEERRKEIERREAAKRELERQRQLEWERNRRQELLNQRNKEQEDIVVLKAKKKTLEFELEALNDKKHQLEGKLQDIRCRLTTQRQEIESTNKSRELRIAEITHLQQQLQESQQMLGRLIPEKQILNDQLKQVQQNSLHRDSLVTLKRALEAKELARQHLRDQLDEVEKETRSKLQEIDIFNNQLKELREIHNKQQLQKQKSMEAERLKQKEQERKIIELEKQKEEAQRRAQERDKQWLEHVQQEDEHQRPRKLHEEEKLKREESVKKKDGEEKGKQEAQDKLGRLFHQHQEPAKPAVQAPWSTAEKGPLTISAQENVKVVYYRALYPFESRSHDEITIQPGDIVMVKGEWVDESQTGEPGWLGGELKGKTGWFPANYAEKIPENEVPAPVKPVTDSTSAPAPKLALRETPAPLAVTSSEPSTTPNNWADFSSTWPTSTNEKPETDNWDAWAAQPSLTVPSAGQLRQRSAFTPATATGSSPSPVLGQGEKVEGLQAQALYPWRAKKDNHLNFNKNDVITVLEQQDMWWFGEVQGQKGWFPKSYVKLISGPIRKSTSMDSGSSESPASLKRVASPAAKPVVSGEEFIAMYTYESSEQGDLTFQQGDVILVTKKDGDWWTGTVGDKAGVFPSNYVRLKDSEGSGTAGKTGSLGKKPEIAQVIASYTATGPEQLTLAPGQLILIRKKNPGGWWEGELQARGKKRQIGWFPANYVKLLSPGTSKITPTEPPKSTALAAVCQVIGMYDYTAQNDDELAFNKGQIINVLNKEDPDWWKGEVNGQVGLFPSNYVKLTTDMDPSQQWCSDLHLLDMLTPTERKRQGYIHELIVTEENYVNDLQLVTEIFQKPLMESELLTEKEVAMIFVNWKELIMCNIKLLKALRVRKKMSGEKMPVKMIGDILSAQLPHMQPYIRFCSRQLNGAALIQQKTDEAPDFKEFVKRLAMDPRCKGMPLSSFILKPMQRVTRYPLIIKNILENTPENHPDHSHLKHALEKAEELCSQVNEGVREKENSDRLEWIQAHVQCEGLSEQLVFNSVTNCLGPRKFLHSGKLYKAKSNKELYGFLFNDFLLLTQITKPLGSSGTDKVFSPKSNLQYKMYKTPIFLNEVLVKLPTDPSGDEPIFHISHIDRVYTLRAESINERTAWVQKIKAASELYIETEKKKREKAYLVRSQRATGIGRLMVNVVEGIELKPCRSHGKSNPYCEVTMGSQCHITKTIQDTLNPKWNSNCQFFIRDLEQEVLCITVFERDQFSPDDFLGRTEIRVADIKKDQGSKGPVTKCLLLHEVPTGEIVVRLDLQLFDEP

[11] = target: Rho GEF 11/Transforming protein RhoA (Homo sapiens) (UniProt P61586+O15085); test: Inhibition of FLAG-tagged human PDZ RhoGEF DH-PH module expressed in mouse NIH/3T3 cells assessed as reduction in human full length RhoA (1 to 193 residues) interaction with PDZ RhoGEF at 30 to 50 uM incubated for 1 hr by Western blot analysis based GST-RhoA pull-down assay; format: cell-based
Mus musculus [12] = organism: Mus musculus; test: Inhibition of RhoGEF-mediated RhoA signaling in mouse NIH/3T3 cells assessed as reduction in 10% calf serum-induced stress fiber and focal complex formation 30 uM incubated for 24 hrs; format: cell-based
MCF7 [13] = test: Inhibition of RhoGEF in human MCF7 cells derived mammospheres assessed as inhibition of 10% calf serum-induced RhoA-GTP formation at 10 uM incubated for 24 hrs by densitometry relative to control; format: cell-based
MCF7 [14] = test: Inhibition of cell invasion of human MCF7 cells at 2.5 to 25 uM in presence of 2.5 to 25 uM Rhosin/G04 by Matrigel-coated transwell based assay; format: functional
Mus musculus [15] = organism: Mus musculus; test: Inhibition of RhoGEF in mouse NIH/3T3 cells assessed as inhibition of 10% calf serum-induced RhoA-GTP formation incubated for 24 hrs by densitometry; format: cell-based
Mus musculus [16] = organism: Mus musculus; test: Inhibition of RhoGEF in mouse NIH/3T3 cells assessed as inhibition of 10% calf serum-induced RhoA-GTP formation by measuring relative RhoA-GTP level at 2.5 uM in presence of 2.5 uM Rhosin/G04 incubated for 24 hrs by densitometry (reference value: 1); format: cell-based
MCF7 [17] = test: Inhibition of RhoGEF in human MCF7 cells derived mammospheres assessed as inhibition of 10% calf serum-induced RhoA-GTP formation by measuring relative RhoA-GTP level at 5 uM in presence of 5 uM Rhosin/G04 incubated for 24 hrs by densitometry (reference value: 1); format: cell-based
[18] = target: Protein diaphanous homolog 1/Transforming protein RhoA (Homo sapiens) (UniProt P61586+O60610); test: Inhibition of human mDia1 expressed in mouse NIH/3T3 cells assessed as reduction in human full length RhoA (1 to 193 residues) interaction with mDia1 at 50 to 100 uM incubated for 1 hr by Western blot analysis based His-RhoA pull-down assay; format: cell-based
NIH3T3 = test: Toxicity in mouse NIH/3T3 cells assessed as induction of apoptosis at 10 to 50 uM incubated for 24 hrs by Annexin-V/7-AAD staining based FACS analysis; format: cell-based; settings: nih3t3, 24 h
[19] = target: CDC42/Intersectin-1 (Homo sapiens) (UniProt P60953+Q15811); test: Inhibition of GST-tagged human intersectin-1 RhoGEF (1227 to 1571 residues) expressed in mouse NIH/3T3 cells assessed as reduction in human full length Cdc42 (1 to 191 residues) interaction with intersectin-1 RhoGEF at 50 to 200 uM incubated for 1 hr by Western blot analysis based pull-down assay; format: cell-based
Sequence of CDC42/Intersectin-1 (Homo sapiens) (P60953 whole entry, looked up, the tested form may be a part): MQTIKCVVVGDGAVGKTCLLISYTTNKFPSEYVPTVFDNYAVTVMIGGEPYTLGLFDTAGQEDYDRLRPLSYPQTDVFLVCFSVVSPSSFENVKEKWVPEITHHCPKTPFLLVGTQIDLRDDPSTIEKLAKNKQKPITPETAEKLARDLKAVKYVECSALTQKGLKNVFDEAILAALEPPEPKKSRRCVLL
Sequence of CDC42/Intersectin-1 (Homo sapiens) (Q15811 whole entry, looked up, the tested form may be a part): as the sequence (Q15811 whole entry, the tested form may be a part) above

[20] = tested on: Transforming protein RhoA (Homo sapiens), P61586 [Q63L]; test: Inhibition of constitutively active RhoA Q63L mutant (unknown origin) expressed in mouse NIH/3T3 cells assessed as reduction in 10% calf serum-induced focal adhesion complex formation at 50 uM by anti-vinculin antibody staining based assay; format: cell-based
MCF7 [21] = test: Inhibition of RhoGEF in human MCF7 cells derived mammospheres assessed as inhibition of 10% calf serum-induced RhoA-GTP formation by measuring relative RhoA-GTP level at 5 uM incubated for 24 hrs by densitometry (reference value: 1); format: cell-based
[22] = tested on: Rho-associated protein kinase 2 (Homo sapiens), O75116 [UNDEFINED MUTATION]; test: Inhibition of constitutively active ROCK2 mutant (unknown origin) expressed in mouse NIH/3T3 cells assessed as reduction in 10% calf serum-induced focal adhesion complex formation at 530 uM by anti-vinculin antibody staining based assay; format: cell-based
Sequence of Rho-associated protein kinase 2 (Homo sapiens), O75116 [UNDEFINED MUTATION] (O75116 whole entry, looked up, change not shown): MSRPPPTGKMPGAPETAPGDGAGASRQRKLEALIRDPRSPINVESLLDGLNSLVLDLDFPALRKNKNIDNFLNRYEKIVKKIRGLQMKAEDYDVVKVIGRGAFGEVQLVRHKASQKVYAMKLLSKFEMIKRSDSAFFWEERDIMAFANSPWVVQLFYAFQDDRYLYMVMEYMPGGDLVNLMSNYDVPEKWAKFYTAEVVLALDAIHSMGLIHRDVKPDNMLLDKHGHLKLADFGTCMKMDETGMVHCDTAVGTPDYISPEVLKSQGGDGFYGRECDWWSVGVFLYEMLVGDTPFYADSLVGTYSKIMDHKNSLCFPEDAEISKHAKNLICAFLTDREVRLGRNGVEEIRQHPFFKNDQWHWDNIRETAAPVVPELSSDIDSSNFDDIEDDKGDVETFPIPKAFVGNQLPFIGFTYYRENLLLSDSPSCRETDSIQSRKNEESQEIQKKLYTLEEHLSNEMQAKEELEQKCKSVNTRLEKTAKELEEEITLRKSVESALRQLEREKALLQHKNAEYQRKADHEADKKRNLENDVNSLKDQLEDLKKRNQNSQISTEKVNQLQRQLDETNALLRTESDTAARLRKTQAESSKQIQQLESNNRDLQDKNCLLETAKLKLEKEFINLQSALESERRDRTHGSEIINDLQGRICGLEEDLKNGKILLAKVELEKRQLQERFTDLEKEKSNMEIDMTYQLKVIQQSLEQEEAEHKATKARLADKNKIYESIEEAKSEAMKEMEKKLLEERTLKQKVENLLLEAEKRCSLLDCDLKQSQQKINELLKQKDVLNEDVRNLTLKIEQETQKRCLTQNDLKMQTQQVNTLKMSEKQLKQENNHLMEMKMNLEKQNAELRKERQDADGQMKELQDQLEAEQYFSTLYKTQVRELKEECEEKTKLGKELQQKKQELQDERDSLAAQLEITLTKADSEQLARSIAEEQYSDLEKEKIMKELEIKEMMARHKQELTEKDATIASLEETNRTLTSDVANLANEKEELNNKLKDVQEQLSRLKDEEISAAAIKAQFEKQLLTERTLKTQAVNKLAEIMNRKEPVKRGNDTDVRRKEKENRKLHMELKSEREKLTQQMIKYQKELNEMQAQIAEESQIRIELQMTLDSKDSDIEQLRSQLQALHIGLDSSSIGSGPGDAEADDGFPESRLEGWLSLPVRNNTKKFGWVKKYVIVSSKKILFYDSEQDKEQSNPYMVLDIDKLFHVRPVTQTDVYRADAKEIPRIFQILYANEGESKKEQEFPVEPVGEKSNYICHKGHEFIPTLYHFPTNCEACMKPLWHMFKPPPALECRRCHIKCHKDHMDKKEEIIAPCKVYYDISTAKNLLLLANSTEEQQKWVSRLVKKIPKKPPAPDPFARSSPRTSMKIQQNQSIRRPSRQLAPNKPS

[23] = target: T1, RhoGEF 1/Transforming protein RhoA (Homo sapiens); test: as §1, with “2.5” for “30”, “uM in presence of 2.5 uM Rhosin/G04” for “uM”; format: cell-based

fold change (FC) [2]: 0.57 | inhibition [5]: inactive | fold change (FC) [7]: 0.19 | inhibition [10]: inactive | inhibition [11]: Active | inhibition [18]: inactive | inhibition [19]: inactive | inhibition [20]: inactive | inhibition [22]: inactive | fold change (FC) [23]: 0.71
SMILES: Cc1cccc(COc2cccc(/C=C3\C(=O)NN(c4ccccc4)C3=O)c2)c1
fold change (FC) (Mus musculus [1]): 2.36 | inhibition (MCF7 [3]): 50% | inhibition (MCF7 [4]): Active | inhibition (Mus musculus [6]): Active | inhibition (Mus musculus [8]): 50% | inhibition (Mus musculus [9]): inactive | inhibition (Mus musculus [12]): Active | inhibition (MCF7 [13]): 50% | inhibition (MCF7 [14]): Active | inhibition (Mus musculus [15]): Dose-dependent effect | fold change (FC) (Mus musculus [16]): 1.26 | fold change (FC) (MCF7 [17]): 0.11 | Activity (NIH3T3): Non-Toxic | fold change (FC) (MCF7 [21]): 0.77
